Laboratory results taken from paper PMC5190008, “BO-1055, a novel DNA cross-linking agent with remarkable low myelotoxicity shows potent activity in sarcoma models” (Oncotarget, 2016).

What was measured:
[1] = In vivo toxicity testing: complete blood counts, renal and liver function tests; conditions: C57 healthy mice
Description: However myelotoxicity has been a challenge, resulting in delay in treatment cycles and infectious complications. Hematopoietic toxicity was partly alleviated by the administration of G-CSF [32] and allowed dose-escalation. […] Overcoming hematopoietic and organ toxicities will allow us to administer chemotherapy at a higher dose and at a shorter interval, which can potentially result in better cure rates. […] This was also seen in the in vivo toxicity study in C57 healthy mice where hematologic toxicity was not observed at day 10 after 5 doses of BO-1055 at 30mg/kg/dose (Supplementary Table 1). […]
Supplementary table 1. Complete blood counts, renal and […] function tests in C57 healthy mice (n=4 per group) in control and treatment groups. Treatment group received BO--1055 at 30mg/kg/dose on days […]
Control group BO--1055 group Control group BO--1055 group baseline baseline day 10 day 10
Mean SD Mean SD Mean SD Mean SD

[2] = tested on: caspase 3/7 in A673 cells; experiment: Caspase 3/7 activity (ApoTox-Glo Triplex Assay); format: cell-based, human; conditions: A673, 48h and 72h, concentration dependent
Procedure: A673 cells were plated at a density of 5 × 10^3 cells/well in 96 well plates. At 48h and 72h post drug exposure, 100μl of Caspase-Glo 3/7 reagent provided in the ApoTox -Glo Triplex Assay (Promega, USA) was added as per the protocol and the luminescence, which indicates caspase activation, was measured using the Synergy H1 hybrid microplate reader.

A204 cells = experiment: Cell cycle analysis (propidium iodide); format: cell-based, human; conditions: A204, prominent at 12-24h of exposure
Procedure: (§1) Cell viability and apoptosis were determined using 7-AAD (BD Pharmingen, San Diego, CA) and Annexin V-APC (BD Pharmingen, San Diego, CA) staining according to the instructions provided by the manufacturer and as previously published. Cell cycle fractions were determined by propidium iodide nuclear staining. Briefly, cells were harvested, washed in PBS, fixed with 70% ethanol, and incubated with propidium iodide/RNase buffer (BD Biosciences, San Diego, CA) for 15 minutes at room temperature. Data was collected on BD LSR Fortessa fluorescence-activated cell analyzer using BD FACS Diva software and analyzed using FlowJo version 9.6 software (Tree Star, Inc. Ashland, OR). Cell cycle analysis was done by applying the Dean/Jett/Fox cell cycle model using FlowJo software.

A673 cells [3] = experiment: Cell cycle analysis (propidium iodide); format: cell-based, human; conditions: A673, prominent at 12-24h of exposure
Procedure: as §1

A673 xenografts = A673 xenografts in NSG mice; format: in vivo; conditions: 10mg/kg
Procedure: All mouse experiments were performed at the animal core facility at MSKCC under an approved protocol following the IACUC guidelines. Five to seven-week-old NOD/SCID IL2R gamma null (NSG) mice (bred at the Mouse Genetics Core Facility, MSKCC) were used for in vivo experiments. All mouse experiments were done following the IACUC guidelines at the animal facility at MSKCC. Tumors were induced using 10^6 A673 cells or A204 cells in 0.2ml 1:1 cellular medium, Matrigel matrix (BD Bioscience, Bedford, MA) and injected subcutaneously (s.q) into the right flank. The tumors were measured every 3 d with a caliper, and the diameters were recorded. Tumor volume was calculated by the formula a^2 b/2 where ‘a’ is the smallest and ‘b’ is the largest diameter. When the tumors reached 100mm^3, we randomized mice into control and drug treatment groups. Treatment groups received BO-1055 by tail vein injection at 10mg/kg, 20mg/kg and 30mg/kg q2d x 5 doses for mice bearing A673 xenografts. BO-1055 was given at 30mg/kg q2d x 5 doses for mice bearing A204 xenografts. De-identified patient tumor tissues were obtained in accordance with and approval from the MSKCC Institutional Review Board (IRB). Appropriate written consent and assent were obtained from the patients prior to sample collection. Patient derived xenografts were developed in NSG mice (second passage) from a patient with relapsed Ewing sarcoma, who was treated with two alkylating agents- cyclophosphamide and ifosfamide as part of a multi-agent chemotherapy prior to relapse. When the tumors reached 100mm^2, we randomized mice into control and drug treatment groups. Mice in the control groups received PBS injections while mice in the drug treatment group received the maximum tolerated dose (MTD) of cyclophosphamide 70mg/kg i.p. q2d x 3 (shown by shorter arrows) (Figure 5D). Tumor growth was not inhibited in the cyclophosphamide treated mice. When the tumors reached a size greater than 500mm^3, we started treatment with BO-1055 at a dose of 30mg/kg i.v. q2d x 4 doses (shown by longer arrows in Figure 4F). […]

A673 cells [4] = experiment: Annexin V-APC/7-AAD apoptosis flow cytometry; format: cell-based, human; conditions: A673, 48 h, 1μM
Description: In order to quantify the apoptosis ratio in A673 cells treated with BO-1055 we performed Annexin V-APC/7-AAD staining assays. Early apoptosis was defined as the presence of Annexin V-positive and 7-AAD-negative cells. Late apoptosis was defined as Annexin V-positive and 7-AAD-positive cells. Total percent apoptosis was defined as the sum of early and late apoptotic cells as a percentage of the total cell number. BO-1055 induces apoptosis in the A673 cell line in a time-concentration dependent manner (Figure 3B). Around 50 % of treated cells entered apoptosis after 48 h at concentrations of 1μM.
as §1

[5] = 30mg/kg/dose on days 1,3,5,8 and 10, day 10, mean, n=4
[6] = 20mg/kg and 30mg/kg/dose q2d x 5

CN(C)CCNC(=O)c1cccc(NC(=O)Nc2ccc(N(CCCl)CCCl)cc2)c1 [BO-1055]
ALT [1, 5]: 89.50 U/L
AST [1, 5]: 74.25 U/L
BASO [1, 5]: 0.45%
BASO# [1, 5]: 0.02 K/uL
BUN [1, 5]: 24.50 mg/dL
BUN/CREA ratio [1, 5]: 125.40
CREA [1, 5]: 0.20 mg/dL
DBIL [1, 5]: 0.00 mg/dL
EO [1, 5]: 2.93%
EO# [1, 5]: 0.13 K/uL
GLU [1, 5]: 166.00 mg/dL
HCT [1, 5]: 46.30%
HGB [1, 5]: 13.08 g/dL
IBIL [1, 5]: 0.13 mg/dL
LYMPH [1, 5]: 51.63%
LYMPH# [1, 5]: 2.90 K/uL
MCH [1, 5]: 14.40 pg
MCHC [1, 5]: 28.28 g/dL
MCV [1, 5]: 51.03 fL
MONO [1, 5]: 7.80%
MONO# [1, 5]: 0.39 K/uL
MPV [1, 5]: 6.38 fL
NEUT [1, 5]: 37.20%
NEUT# [1, 5]: 1.90 K/uL
PDW [1, 5]: 7.40 fL
PLT [1, 5]: 1108.25 K/uL
RBC [1, 5]: 9.08 M/uL
RDW-CV [1, 5]: 23.18%
RDW-SD [1, 5]: 32.48 fL
RET [1, 5]: 4.72%
RET# [1, 5]: 426.88 K/uL
TBIL [1, 5]: 0.23 mg/dL
TP [1, 5]: 3.77 g/dL
WBC# [1, 5]: 5.34 K/uL
change in hematocrit, platelet count or neutrophil count ([1]; day 10): did not reveal a significant change
hematologic toxicity ([1]; day 10 after 5 doses at 30mg/kg/dose): not observed
caspase 3/7 activity [2]: Activation
cell cycle effect (A204 cells): concentration-dependent accumulation of cells in the G2/M phase
cell cycle effect (A673 cells [3]): concentration-dependent accumulation of cells in the G2/M phase
body weight (A673 xenografts; [6]): no significant decrease in body weight
survival (A673 xenografts; [6]): prolonged survival
tumor growth (A673 xenografts; 20mg/kg and 30mg/kg/dose q2d x 5, tail vein): inhibition of tumor growth
treated cells entering apoptosis (A673 cells [4]): Around 50%
